Data from the supplement of paper PMC10307832.

What was measured:
Experiment in all cases: relative viability (nuclei count vs DMSO), 5 days (fraction); higher = more cells survive
ABC-1 = system: ABC-1
Summary of the method: (§1)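 Each reported value is a median over duplicate plates. It expresses relative viability: treated-well nuclei count divided by vehicle-well nuclei count. Lung cancer cell lines in 1536-well plates were dosed by pin tool a day after seeding, alone with one drug or with a fixed anchor-drug dose plus five library-drug doses (not always all listed) in √10 steps, and nuclei were counted after 5 days.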

COR-L23 = system: COR-L23
Summary of the method: as §1

EPLC-272H = system: EPLC-272H
Summary of the method: as §1

HARA = system: HARA
Summary of the method: as §1

HCC-15 = system: HCC-15
Summary of the method: as §1

HCC-78 = system: HCC-78
Summary of the method: as §1

LC-2-ad = system: LC-2-ad
Summary of the method: as §1

LU99A = system: LU99A
Summary of the method: as §1

NCI-H1355 = system: NCI-H1355
Summary of the method: as §1

NCI-H1651 = system: NCI-H1651
Summary of the method: as §1

NCI-H1915 = system: NCI-H1915
Summary of the method: as §1

NCI-H1993 = system: NCI-H1993
Summary of the method: as §1

NCI-H2023 = system: NCI-H2023
Summary of the method: as §1

NCI-H2085 = system: NCI-H2085
Summary of the method: as §1

NCI-H2126 = system: NCI-H2126
Summary of the method: as §1

NCI-H2342 = system: NCI-H2342
Summary of the method: as §1

NCI-H2347 = system: NCI-H2347
Summary of the method: as §1

NCI-H358 = system: NCI-H358
Summary of the method: as §1

NCI-H650 = system: NCI-H650
Summary of the method: as §1

NCI-H838 = system: NCI-H838
Summary of the method: as §1

PC-14 = system: PC-14
Summary of the method: as §1

SW 1573 = system: SW 1573
Summary of the method: as §1

UMC-11 = system: UMC-11
Summary of the method: as §1

Question: How did the relative viability (ABC-1; first compound 0.04 µM) turn out when O=C(O)c1ccc(-c2c[nH]c3ncc(-c4ccccc4)cc23)cc1C1CCCC1 + Nc1ncn([C@H]2C[C@H](O)[C@@H](CO)O2)c(=O)n1 [Decitabine] (partner 2 µM) was run?
Answer: Its relative viability is 1.1.

Question: And the relative viability (ABC-1; first compound 0.1265 µM)?
Answer: The relative viability was 1.1.

Question: What about the relative viability (ABC-1; first compound 0.4 µM) of the same compound?
Answer: Its relative viability is 0.891.

Question: And the relative viability (ABC-1; first compound 1.265 µM)?
Answer: The relative viability was 0.931.

Question: What about the relative viability (COR-L23; first compound 0.04 µM) of the same compound?
Answer: Its relative viability is 0.446.

Question: And the relative viability (COR-L23; first compound 0.1265 µM)?
Answer: Its relative viability is 0.414.

Question: What about the relative viability (COR-L23; first compound 0.4 µM) of the same compound?
Answer: Its relative viability is 0.365.

Question: What about the relative viability (COR-L23; first compound 1.265 µM) of the same compound?
Answer: The relative viability was 0.327.

Question: What about the relative viability (EPLC-272H; first compound 0.04 µM) of the same compound?
Answer: The relative viability was 0.351.

Question: What about the relative viability (EPLC-272H; first compound 0.1265 µM) of the same compound?
Answer: The relative viability was 0.402.

Question: And the relative viability (EPLC-272H; first compound 0.4 µM)?
Answer: Its relative viability is 0.388.

Question: What about the relative viability (EPLC-272H; first compound 1.265 µM) of the same compound?
Answer: The relative viability was 0.277.

Question: And the relative viability (HARA; first compound 0.04 µM)?
Answer: The relative viability was 0.372.

Question: What about the relative viability (HARA; first compound 0.1265 µM) of the same compound?
Answer: Its relative viability is 0.643.

Question: And the relative viability (HARA; first compound 0.4 µM)?
Answer: The relative viability was 0.477.

Question: And the relative viability (HARA; first compound 1.265 µM)?
Answer: The relative viability was 0.354.

Question: What about the relative viability (HCC-15; first compound 0.04 µM) of the same compound?
Answer: Its relative viability is 0.641.

Question: What about the relative viability (HCC-15; first compound 0.1265 µM) of the same compound?
Answer: Its relative viability is 0.673.

Question: What about the relative viability (HCC-15; first compound 0.4 µM) of the same compound?
Answer: The relative viability was 0.608.

Question: And the relative viability (HCC-15; first compound 1.265 µM)?
Answer: Its relative viability is 0.381.

Question: What about the relative viability (HCC-78; first compound 0.1265 µM) of the same compound?
Answer: Its relative viability is 0.862.

Question: What about the relative viability (HCC-78; first compound 0.4 µM) of the same compound?
Answer: The relative viability was 0.859.

Question: What about the relative viability (HCC-78; first compound 1.265 µM) of the same compound?
Answer: The relative viability was 0.622.

Question: What about the relative viability (LC-2-ad; first compound 0.04 µM) of the same compound?
Answer: Its relative viability is 0.718.

Question: What about the relative viability (LC-2-ad; first compound 0.1265 µM) of the same compound?
Answer: Its relative viability is 0.756.

Question: What about the relative viability (LC-2-ad; first compound 0.4 µM) of the same compound?
Answer: The relative viability was 0.737.

Question: What about the relative viability (LC-2-ad; first compound 1.265 µM) of the same compound?
Answer: The relative viability was 0.651.

Question: And the relative viability (LU99A; first compound 0.04 µM)?
Answer: Its relative viability is 0.88.

Question: What about the relative viability (LU99A; first compound 0.1265 µM) of the same compound?
Answer: The relative viability was 0.837.

Question: And the relative viability (LU99A; first compound 0.4 µM)?
Answer: The relative viability was 0.822.

Question: And the relative viability (LU99A; first compound 1.265 µM)?
Answer: Its relative viability is 0.576.

Question: And the relative viability (NCI-H1355; first compound 0.04 µM)?
Answer: Its relative viability is 0.337.

Question: What about the relative viability (NCI-H1355; first compound 0.1265 µM) of the same compound?
Answer: Its relative viability is 0.331.

Question: What about the relative viability (NCI-H1355; first compound 0.4 µM) of the same compound?
Answer: Its relative viability is 0.408.

Question: What about the relative viability (NCI-H1355; first compound 1.265 µM) of the same compound?
Answer: The relative viability was 0.307.

Question: And the relative viability (NCI-H1651; first compound 0.04 µM)?
Answer: The relative viability was 0.477.

Question: And the relative viability (NCI-H1651; first compound 0.1265 µM)?
Answer: The relative viability was 0.616.

Question: What about the relative viability (NCI-H1651; first compound 0.4 µM) of the same compound?
Answer: Its relative viability is 0.57.

Question: What about the relative viability (NCI-H1651; first compound 1.265 µM) of the same compound?
Answer: Its relative viability is 0.54.

Question: What about the relative viability (NCI-H1915; first compound 0.04 µM) of the same compound?
Answer: The relative viability was 0.241.

Question: And the relative viability (NCI-H1915; first compound 0.1265 µM)?
Answer: Its relative viability is 0.229.

Question: What about the relative viability (NCI-H1915; first compound 0.4 µM) of the same compound?
Answer: Its relative viability is 0.259.

Question: And the relative viability (NCI-H1915; first compound 1.265 µM)?
Answer: The relative viability was 0.251.

Question: And the relative viability (NCI-H1993; first compound 0.04 µM)?
Answer: The relative viability was 0.552.

Question: And the relative viability (NCI-H1993; first compound 0.1265 µM)?
Answer: The relative viability was 0.547.

Question: What about the relative viability (NCI-H1993; first compound 0.4 µM) of the same compound?
Answer: Its relative viability is 0.613.

Question: What about the relative viability (NCI-H1993; first compound 1.265 µM) of the same compound?
Answer: The relative viability was 0.644.

Question: And the relative viability (NCI-H2023; first compound 0.04 µM)?
Answer: Its relative viability is 0.191.

Question: And the relative viability (NCI-H2023; first compound 0.1265 µM)?
Answer: The relative viability was 0.243.

Question: What about the relative viability (NCI-H2023; first compound 0.4 µM) of the same compound?
Answer: Its relative viability is 0.216.

Question: What about the relative viability (NCI-H2023; first compound 1.265 µM) of the same compound?
Answer: The relative viability was 0.17.

Question: What about the relative viability (NCI-H2085; first compound 0.04 µM) of the same compound?
Answer: Its relative viability is 0.588.

Question: And the relative viability (NCI-H2085; first compound 0.1265 µM)?
Answer: Its relative viability is 0.548.

Question: And the relative viability (NCI-H2085; first compound 0.4 µM)?
Answer: Its relative viability is 0.56.

Question: And the relative viability (NCI-H2085; first compound 1.265 µM)?
Answer: The relative viability was 0.366.

Question: And the relative viability (NCI-H2126; first compound 0.04 µM)?
Answer: The relative viability was 0.585.

Question: What about the relative viability (NCI-H2126; first compound 0.1265 µM) of the same compound?
Answer: Its relative viability is 0.621.

Question: And the relative viability (NCI-H2126; first compound 0.4 µM)?
Answer: Its relative viability is 0.466.

Question: And the relative viability (NCI-H2126; first compound 1.265 µM)?
Answer: Its relative viability is 0.569.

Question: And the relative viability (NCI-H2342; first compound 0.04 µM)?
Answer: Its relative viability is 0.724.

Question: And the relative viability (NCI-H2342; first compound 0.1265 µM)?
Answer: Its relative viability is 0.663.

Question: And the relative viability (NCI-H2342; first compound 0.4 µM)?
Answer: Its relative viability is 0.836.

Question: And the relative viability (NCI-H2342; first compound 1.265 µM)?
Answer: Its relative viability is 0.731.

Question: And the relative viability (NCI-H2347; first compound 0.04 µM)?
Answer: Its relative viability is 0.609.

Question: What about the relative viability (NCI-H2347; first compound 0.1265 µM) of the same compound?
Answer: Its relative viability is 0.603.

Question: What about the relative viability (NCI-H2347; first compound 0.4 µM) of the same compound?
Answer: Its relative viability is 0.647.

Question: What about the relative viability (NCI-H2347; first compound 1.265 µM) of the same compound?
Answer: The relative viability was 0.582.

Question: And the relative viability (NCI-H358; first compound 0.04 µM)?
Answer: The relative viability was 0.193.

Question: And the relative viability (NCI-H358; first compound 0.1265 µM)?
Answer: Its relative viability is 0.218.

Question: What about the relative viability (NCI-H358; first compound 0.4 µM) of the same compound?
Answer: Its relative viability is 0.172.

Question: What about the relative viability (NCI-H358; first compound 1.265 µM) of the same compound?
Answer: Its relative viability is 0.115.

Question: And the relative viability (NCI-H650; first compound 0.04 µM)?
Answer: Its relative viability is 0.284.

Question: And the relative viability (NCI-H650; first compound 0.1265 µM)?
Answer: The relative viability was 0.317.

Question: And the relative viability (NCI-H650; first compound 0.4 µM)?
Answer: The relative viability was 0.329.

Question: And the relative viability (NCI-H650; first compound 1.265 µM)?
Answer: The relative viability was 0.274.

Question: What about the relative viability (NCI-H838; first compound 0.04 µM) of the same compound?
Answer: The relative viability was 0.45.

Question: And the relative viability (NCI-H838; first compound 0.1265 µM)?
Answer: The relative viability was 0.475.

Question: And the relative viability (NCI-H838; first compound 0.4 µM)?
Answer: The relative viability was 0.416.

Question: What about the relative viability (NCI-H838; first compound 1.265 µM) of the same compound?
Answer: Its relative viability is 0.357.

Question: And the relative viability (PC-14; first compound 0.04 µM)?
Answer: Its relative viability is 0.19.

Question: And the relative viability (PC-14; first compound 0.1265 µM)?
Answer: Its relative viability is 0.211.

Question: What about the relative viability (PC-14; first compound 0.4 µM) of the same compound?
Answer: The relative viability was 0.213.

Question: And the relative viability (PC-14; first compound 1.265 µM)?
Answer: Its relative viability is 0.195.

Question: And the relative viability (SW 1573; first compound 0.04 µM)?
Answer: Its relative viability is 0.403.

Question: What about the relative viability (SW 1573; first compound 0.1265 µM) of the same compound?
Answer: The relative viability was 0.546.

Question: And the relative viability (SW 1573; first compound 0.4 µM)?
Answer: The relative viability was 0.505.

Question: And the relative viability (SW 1573; first compound 1.265 µM)?
Answer: The relative viability was 0.407.

Question: And the relative viability (UMC-11; first compound 0.04 µM)?
Answer: The relative viability was 0.653.

Question: What about the relative viability (UMC-11; first compound 0.1265 µM) of the same compound?
Answer: Its relative viability is 0.565.

Question: And the relative viability (UMC-11; first compound 0.4 µM)?
Answer: The relative viability was 0.497.

Question: And the relative viability (UMC-11; first compound 1.265 µM)?
Answer: Its relative viability is 0.626.
